The values below come from patent publication US4337266A, “Cytostatic terminally bifunctional sugar alcohols process for preparing them and pharmaceutical compositions containing them” (priority 1979, dated 1982).

A word on the LD50: it is the dose at which mortality reaches 50%.

Data set [1] in a line: Toxicity tests, LD50 on mice after intraperitoneal administration. The settings on record: mouse, in vivo, ip. The source says: LD50 values on mice after intraperitoneal administ-
Data set [2] has as its system Walker intramuscular carcinosarcoma. In words: Activity against Walker intramuscular carcinosarcoma. The data set is classed as in vivo. The source says: Activity against Walker intramuscular carcinosarcoma
A further data set relates to S-180 subcutan sarcoma. In words: Activity against S-180 subcutan sarcoma. Format: in vivo. The settings on record: 8 × 50 mg/kg/ip. The text has this: |Activity against S-180 subcutan sarcoma

In data set [1], `CO[C@H]([C@H](OC)[C@@H]1CO1)[C@H]1CO1` [DMDAD, 1,2-5,6-dianhydro-3,4-dimethyl dulcitol] displayed an LD50 of 680 mg/kg. For the same compound, the Antitumour activity in data set [2] (1 × 50 mg/kg/ip) is on record as 55%; in data set [2] (1 × 100 mg/kg/ip) it was 80%; with S-180 subcutan sarcoma, 80%.

In turn, `CO[C@H]([C@H](OC)[C@@H](O)CBr)[C@H](O)CBr` [DMDBD, 1,6-dibromo-1,6-dideoxy-3,4-dimethyl dulcitol] registered an LD50 in data set [1] of 700 mg/kg. For the same compound, the Antitumour activity in data set [2] (1 × 50 mg/kg/ip) was determined as 80%; in data set [2] (1 × 100 mg/kg/ip), 99%; in the data set with S-180 subcutan sarcoma, 90%.

In the case of `CO[C@H]([C@@H]1CO1)[C@H]1CO1` [MMDAX, 1,2-4,5-dianhydro-3-methyl-xylitol], the LD50 in data set [1] came to 500 mg/kg. Further, the Antitumour activity in data set [2] (1 × 100 mg/kg/ip) is recorded as 90%; in the data set with S-180 subcutan sarcoma, 75%.
